The source made the active and inactive calls. No cut-off for these calls is given here.
Experiments:
[1] = test system: MIA PaCa-2; assay: Antitumor activity against human MIA PaCa-2 cells xenografted in BALB/c/Nu/Nu mouse assessed as reduction in final tumor weight at 60 mg/kg, ip administered 5 times a week for 4 weeks in presence of gemcitabine (reference value: […]); type: functional
[2] = Toxicity in BALB/c/Nu/Nu mouse xenografted with human MIA PaCa-2 cells assessed as change in body weight at 60 mg/kg, ip administered 5 times a week for 4 weeks in presence of gemcitabine; type: organism-based; conditions: in vivo, 672 h
[3] = test system: MIA PaCa-2; assay: Antimetastatic activity in human MIA PaCa-2 cells in DMEM media assessed as inhibition of cell migration at 10 uM incubated for 36 hrs relative to control (reference value: 30%); type: functional
[4] = test system: MIA PaCa-2; assay: Preferential cytotoxicity against human MIA PaCa-2 cells in nutrient-deprived medium assessed as alteration in cell morphology by measuring membrane rupture at 0.5 to 1 uM measured after 24 hrs by acridine orange and ethidium bromide dual fluorescent staining based microscopic analysis; type: functional; conditions: dose 0.5-1 µM
[5] = test system: MIA PaCa-2; assay: Antimetastatic activity in human MIA PaCa-2 cells in DMEM media assessed as inhibition of cell migration at 10 uM incubated for 18 hrs relative to control (reference value: 64%); type: functional
[6] = test system: MIA PaCa-2; assay: Antimetastatic activity in human MIA PaCa-2 cells in DMEM media assessed as reduction in colony area at 20 uM incubated for 24 hrs by crystal violet staining-based assay; type: functional; design: scale not given: the % may be the effect or the level left
[7] = Toxicity in BALB/c/Nu/Nu mouse xenografted with human MIA PaCa-2 cells assessed as change in abdominal organs at 60 mg/kg, ip administered 5 times a week for 4 weeks; type: organism-based; conditions: in vivo, 672 h
[8] = Toxicity in BALB/c/Nu/Nu mouse xenografted with human MIA PaCa-2 cells assessed as change in body weight at 20 mg/kg, ip administered 5 times a week for 4 weeks; type: organism-based; conditions: in vivo, 672 h
[9] = test system: PANC-1; assay: Preferential cytotoxicity against human PANC-1 cells in nutrient-deprived medium measured after 24 hrs by WST-8 cell counting analysis; type: functional
[10] = test system: MIA PaCa-2; assay: Antitumor activity against human MIA PaCa-2 cells xenografted in BALB/c/Nu/Nu mouse assessed as reduction in number of blood vessels in skin at 20 mg/kg, ip administered 5 times a week for 4 weeks; type: functional, organism-based
[11] = test system: MIA PaCa-2; assay: Synergistic antitumor activity against human MIA PaCa-2 cells xenografted in BALB/c/Nu/Nu mouse assessed as increase in pleomorphism at 60 mg/kg, ip administered 5 times a week for 4 weeks by H and E staining based analysis; type: functional, organism-based
[12] = Modulation of PI3K/AKT/mTOR signalling pathway in human MIA PaCa-2 cells in DMEM medium assessed as downregulation of GRP78 expression incubated for 24 hrs in presence of gemcitabine by Western blot analysis; type: cell-based; conditions: filed as modulator, dose 1-5 µM
[13] = test system: MIA PaCa-2; assay: Preferential cytotoxicity against human MIA PaCa-2 cells in nutrient-deprived medium assessed as alteration in cell morphology by measuring membrane blebbing at 0.5 to 1 uM measured after 24 hrs by acridine orange and ethidium bromide dual fluorescent staining based microscopic analysis; type: functional; conditions: dose 0.5-1 µM
[14] = test system: MIA PaCa-2; assay: Preferential cytotoxicity against human MIA PaCa-2 cells in nutrient-deprived medium assessed as alteration in cell morphology by fluorescence intensity measured after 24 hrs by acridine orange and ethidium bromide dual fluorescent staining based microscopic analysis; type: functional; conditions: dose 0.5-1 µM
[15] = test system: MIA PaCa-2; assay: Preferential cytotoxicity against human MIA PaCa-2 cells in nutrient-deprived medium measured after 24 hrs by WST-8 cell counting analysis; type: functional
[16] = test system: Mus musculus; assay: In-vivo modulation of PI3K/AKT/mTOR signalling pathway in human MIA PaCa-2 cells xenografted in BALB/c/Nu/Nu mouse assessed as downregulation of mTOR phosphorylation at 60 mg/kg, ip administered 5 times a week for 4 weeks in presence of gemcitabine by Western blot analysis; type: functional, organism-based
[17] = Modulation of PI3K/AKT/mTOR signalling pathway in human MIA PaCa-2 cells in DMEM medium assessed as decrease in Akt phosphorylation at 5 uM measured for 6 hrs by Western blot analysis; type: cell-based; conditions: filed as modulator
[18] = test system: MIA PaCa-2; assay: Antimetastatic activity in human MIA PaCa-2 cells in DMEM media assessed as inhibition of colony formation incubated for 24 hrs by crystal violet staining-based assay; type: functional, cell-based; conditions: dose 5-20 µM
[19] = Selectivity index, ratio of IC50 for preferential cytotoxicity against human MIA PaCa-2 cells in DMEM to PC50 for preferential cytotoxicity against human MIA PaCa-2 cells in nutrient-deprived medium; type: functional
[20] = test system: MIA PaCa-2; assay: Preferential cytotoxicity against human MIA PaCa-2 cells in nutrient-deprived medium assessed as alteration in cell morphology by measuring membrane leakage at 0.5 to 1 uM measured after 24 hrs by acridine orange and ethidium bromide dual fluorescent staining based microscopic analysis; type: functional; conditions: dose 0.5-1 µM
[21] = test system: Mus musculus; assay: In-vivo modulation of PI3K/AKT/mTOR signalling pathway in human MIA PaCa-2 cells xenografted in BALB/c/Nu/Nu mouse assessed as downregulation of TRB3 level at 60 mg/kg, ip administered 5 times a week for 4 weeks in presence of gemcitabine by Western blot analysis; type: functional, organism-based
[22] = Modulation of PI3K/AKT/mTOR signalling pathway in human MIA PaCa-2 cells in DMEM medium assessed as downregulation of AKT expression incubated for 24 hrs in presence of gemcitabine by Western blot analysis; type: cell-based; conditions: filed as modulator, dose 1-5 µM
[23] = test system: MIA PaCa-2; assay: Induction of endoplasmic reticulum (ER) stress in human MIA PaCa-2 cells in NDM medium assessed as change in TRB3 level at 5 uM measured after 6 hrs by Western blot analysis; type: functional, cell-based
[24] = test system: Mus musculus; assay: In-vivo modulation of PI3K/AKT/mTOR signalling pathway in human MIA PaCa-2 cells xenografted in BALB/c/Nu/Nu mouse assessed as downregulation of GRP78 level at 60 mg/kg, ip administered 5 times a week for 4 weeks in presence of gemcitabine by Western blot analysis; type: functional, organism-based
[25] = test system: MIA PaCa-2; assay: Induction of endoplasmic reticulum (ER) stress in human MIA PaCa-2 cells in DMEM medium assessed as change in TRB3 level at 5 uM measured after 6 hrs by Western blot analysis; type: functional, cell-based
[26] = test system: MIA PaCa-2; assay: Antitumor activity against human MIA PaCa-2 cells xenografted in BALB/c/Nu/Nu mouse assessed as tumor volume at 20 mg/kg, ip administered 5 times a week for 4 weeks and measured on day 32 (reference value: 1417 mm3); type: functional; conditions: time 32 day
[27] = test system: MIA PaCa-2; assay: Antitumor activity against human MIA PaCa-2 cells xenografted in BALB/c/Nu/Nu mouse assessed as reduction in tumor cell density at 60 mg/kg, ip administered 5 times a week for 4 weeks by H and E staining based analysis; type: functional, organism-based
[28] = test system: Mus musculus; assay: In-vivo modulation of PI3K/AKT/mTOR signalling pathway in human MIA PaCa-2 cells xenografted in BALB/c/Nu/Nu mouse assessed as downregulation of Akt phosphorylation at 60 mg/kg, ip administered 5 times a week for 4 weeks in presence of gemcitabine by Western blot analysis; type: functional, organism-based
[29] = test system: Mus musculus; assay: In-vivo modulation of PI3K/AKT/mTOR signalling pathway in human MIA PaCa-2 cells xenografted in BALB/c/Nu/Nu mouse assessed as downregulation of CHOP level at 60 mg/kg, ip administered 5 times a week for 4 weeks in presence of gemcitabine by Western blot analysis; type: functional, organism-based

**Q.** With `CC(C)=CCCC1=CC[C@H](C(=O)c2c(O)cccc2O)[C@@H](c2cccc(F)c2F)C1` (relative stereo) as the molecule, how does the Activity [1] read?
**A.** 139 mg

**Q.** What about the Activity [2] of the same molecule?
**A.** Non-Toxic

**Q.** What about the inhibition at 10 µM [3] of the same molecule?
**A.** 77%

**Q.** And the Activity [4]?
**A.** Active

**Q.** What about the inhibition at 10 µM [5] of the same molecule?
**A.** 92%

**Q.** And the Activity [6]?
**A.** 98%

**Q.** And the Activity [7]?
**A.** Non-Toxic

**Q.** What about the Activity [8] of the same molecule?
**A.** Non-Toxic

**Q.** What about the PC50 [9] of the same molecule?
**A.** 0.23 µM

**Q.** And the Activity [10]?
**A.** Active

**Q.** What about the Activity [11] of the same molecule?
**A.** Active

**Q.** And the Activity [12]?
**A.** Dose-Dependent Effect

**Q.** And the Activity [13]?
**A.** Active

**Q.** What about the Activity [14] of the same molecule?
**A.** Dose-Dependent Effect

**Q.** And the PC50 [15]?
**A.** 0.34 µM

**Q.** And the Activity [16]?
**A.** Active

**Q.** And the Activity [17]?
**A.** Active

**Q.** And the Activity [18]?
**A.** Dose-Dependent Effect

**Q.** What about the “Selectivity Index” value [19] of the same molecule?
**A.** 176

**Q.** And the Activity [20]?
**A.** Active

**Q.** And the Activity [21]?
**A.** Active

**Q.** What about the Activity [22] of the same molecule?
**A.** Dose-Dependent Effect

**Q.** What about the Activity [23] of the same molecule?
**A.** Active

**Q.** What about the Activity [24] of the same molecule?
**A.** Active

**Q.** What about the Activity [25] of the same molecule?
**A.** Active

**Q.** What about the Activity [26] of the same molecule?
**A.** 879 mm3

**Q.** And the Activity [27]?
**A.** Active

**Q.** And the Activity [28]?
**A.** Active

**Q.** And the Activity [29]?
**A.** Active
